# Key:
# Assay in all cases: Yeast 6x EcRE-lacZ β-galactosidase transactivation assay
# Aa EcR + Aa USPa = format: cell-based, Aedes aegypti; details: RH 5992 10 μM, 4 hours, DMSO control 2.300
# Description: (§1) Briefly, yeast cells are cultured in 5 mL of YPD liquid medium overnight at 30° C. The cell culture was diluted 1:20 in YPD media and further grown until cell density reached an O.D of 0.6. at OD600. The cells were pelleted by centrifugation and washed with 10 mL of TE+0.1M lithium acetate. Cells are then resuspended in 10 mL TE+0.1M lithium acetate and incubated at 30° C. for 1 hour. Cells are collected and resuspended in 0.5 mL of TE+ 0.1M lithium acetate. Aliquots of cells (50 μL), were incubated for 15 minutes at 30° C. with 1–2 μg plasmid DNA in the presence of 5 μg of denatured salmon sperm DNA as DNA carrier. In the case of co-transformation, the indicated plasmids were added simultaneously. 50% polyethyleneglycol of molecular weight 4000, diluted in TE, was added to a final concentration of 35%. DMSO was added to the transformation solution simultaneously to a final concentration 3%. The samples were mixed well by vortexing and incubated for an additional 30 minutes at 30° C. The cell mixture is then heated for 15 minutes at 42° C. Cells were then collected and plated onto appropriate yeast selective media. Transformants of 4 plasmids are selected on the complete media without tryptophan, uracil, leucine and histidine.
# (§2) The yeast cells grown overnight in selective liquid media at 30° C. were diluted in prewarmed liquid selective media to 0.1 at OD600 (ODculture). 100 μl of the cell culture was spiked to each well of a.96-well microtiter plate. Ligand (2 μl diluted in DMSO) was added to each well giving a final concentration of DMSO of 2%. As a control, 2 μl of DMSO were also added to additional test wells. The final concentration of the tested compounds in the media is 10 μM. The cells were incubated in the presence of ligand in a shaker at 30° C. After 4 hours of incubation, 100 μl of 2× “Z” Sarcosine-ONPG buffer (120 mM Na2HPO4, 80 mM NaH2PO4, 20 mM KCl, 2 mM MgSO4, 100 mM beta-mercaptoethanol (Sigma), pH 7.0, 0.4% lauroyl sarcosine (Sigma), 4 mg/mL ONPG (Diagnostic Chemicals limited) was added to each well and the plate was further incubated at 37° C. The 2× “Z” Sarcosine-ONPG buffer is freshly prepared or stored at −20° C. prior to use. After incubation at 37° C. for 1 hour. The reaction was stopped by adding 100 μL of quenching solution 0.5 M Na2CO3 and OD405 (ODreaction) and beta-galactosidase activity was measured in a micro plate reader (Biotek) at a wave length of 405–450 nanometers. The effect of copper on enhancement of the transactivation response mediated by the ligands tested was studied by adding CuSO4 to the media to a final concentration of 10 μM.
# (§3) Using the transformation method described above, yeast were co-transformed with a reporter gene as shown in FIG. 2 and the expression vector encoding the full-length Aedes aegypti ecdysone receptor, Aa EcR (FIG. 7A) in the presence or absence of the Aa EcR heterodimer partner, Aa USP (a or b form, FIGS. 8A and 8B respectively). Transformed cells were incubated with DMSO alone as a control, or with a proprietary ecdysone receptor ligand (Rohm & Haas tebufenozide[RH5992]) at final concentration 10 μM for 4 hours. The samples were then assayed for β-galactosidase activity as described above. […] As the N-terminal portion of the AaEcR receptor is reported to play a role in ligand independent transactivation, an expression vector containing an N-terminal deletion in the Aa EcR was constructed (see FIG. 7B) and assessed in the β-galactosidase assays described above. […] Restoration of ligand dependent transactivation was observed only when the AaΔN EcR, AaUSP (a or b forms) and co-activator GRIP1 were coexpressed. As in the Drosophila system, the data obtained indicate that the efficiency of ligand-dependent transactivation of the ecdysone receptor in mosquito A. aegypti is dependent on the both heterodimer formation of EcR/USP and also upon proper interaction with co-activator GRIP1.
# Aa EcR + Aa USPb = format: cell-based, Aedes aegypti; details: RH 5992 10 μM, 4 hours, DMSO control 3.000
# Description: as §1, §2, §3
# Aa USPa = format: cell-based, Aedes aegypti; details: RH 5992 10 μM, 4 hours, DMSO control 0.210
# Description: as §1, §2, §3
# Aa USPb = format: cell-based, Aedes aegypti; details: RH 5992 10 μM, 4 hours, DMSO control 0.196
# Description: as §1, §2, §3
# Aa ΔA/B EcR + Aa USPa = format: cell-based, Aedes aegypti; details: 4 hours
# Description: as §1, §2, §3
# [1] = test system: Aa ΔA/B EcR + Aa ΔA/B USP + GRIP1; format: cell-based, Aedes aegypti; details: RH 5992 10 μM, 4 hours, DMSO control 0.194
# Description: as §1, §2, §3
# [2] = test system: Aa ΔA/B EcR + Aa ΔA/B USP; format: cell-based, Aedes aegypti; details: RH 5992 10 μM, 4 hours, DMSO control 0.187
# Description: as §1, §2, §3
# [3] = target: T1, Aa ΔA/B EcR + Cf ΔA/B USP + GRIP1 (Aedes aegypti, UniProt P49880); format: cell-based, Aedes aegypti; Choristoneura fumiferana; details: RH 5992 10 μM, 4 hours, DMSO control 0.250
# T1 construct: ubiquitin (human, 76 aa) (N, cleaved yes); expressed in transfected cells
# T1 sequence (P49880 with tags, fused parts or gaps): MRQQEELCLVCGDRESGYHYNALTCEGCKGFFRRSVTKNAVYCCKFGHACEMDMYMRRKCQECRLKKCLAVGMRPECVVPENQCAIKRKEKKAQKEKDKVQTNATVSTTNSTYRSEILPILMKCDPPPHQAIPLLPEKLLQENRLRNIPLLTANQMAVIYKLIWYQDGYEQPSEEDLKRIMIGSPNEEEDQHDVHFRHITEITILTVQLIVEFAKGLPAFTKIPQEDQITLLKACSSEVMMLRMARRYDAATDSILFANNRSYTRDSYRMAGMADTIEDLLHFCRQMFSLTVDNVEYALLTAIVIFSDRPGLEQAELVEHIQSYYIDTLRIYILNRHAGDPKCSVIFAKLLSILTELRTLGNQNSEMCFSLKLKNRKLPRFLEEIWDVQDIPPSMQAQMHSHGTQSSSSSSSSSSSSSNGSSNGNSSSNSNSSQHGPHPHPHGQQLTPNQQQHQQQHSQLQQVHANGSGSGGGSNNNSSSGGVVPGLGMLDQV
# T1 sequence (O76202 with tags, fused parts or gaps partner): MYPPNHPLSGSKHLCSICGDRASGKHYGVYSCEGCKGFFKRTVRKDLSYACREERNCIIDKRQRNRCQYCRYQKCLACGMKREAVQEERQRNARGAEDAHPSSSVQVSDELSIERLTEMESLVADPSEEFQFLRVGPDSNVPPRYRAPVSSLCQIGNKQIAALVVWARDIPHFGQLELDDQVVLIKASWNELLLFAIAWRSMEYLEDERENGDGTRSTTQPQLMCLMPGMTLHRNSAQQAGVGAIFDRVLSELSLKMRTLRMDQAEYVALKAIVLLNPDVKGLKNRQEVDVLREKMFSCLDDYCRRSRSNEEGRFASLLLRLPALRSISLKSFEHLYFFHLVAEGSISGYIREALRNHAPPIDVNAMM
# Description: Briefly, yeast cells are cultured in 5 mL of YPD liquid medium overnight at 30° C. The cell culture was diluted 1:20 in YPD media and further grown until cell density reached an O.D of 0.6. at OD600. The cells were pelleted by centrifugation and washed with 10 mL of TE+0.1M lithium acetate. Cells are then resuspended in 10 mL TE+0.1M lithium acetate and incubated at 30° C. for 1 hour. Cells are collected and resuspended in 0.5 mL of TE+ 0.1M lithium acetate. Aliquots of cells (50 μL), were incubated for 15 minutes at 30° C. with 1–2 μg plasmid DNA in the presence of 5 μg of denatured salmon sperm DNA as DNA carrier. In the case of co-transformation, the indicated plasmids were added simultaneously. […]
# Using the transformation method described above, yeast were co-transformed with a reporter gene as shown in FIG. 2 and the expression vector encoding the full-length Aedes aegypti ecdysone receptor, Aa EcR (FIG. 7A) in the presence or absence of the Aa EcR heterodimer partner, Aa USP (a or b form, FIGS. 8A and 8B respectively). […] As the N-terminal portion of the AaEcR receptor is reported to play a role in ligand independent transactivation, an expression vector containing an N-terminal deletion in the Aa EcR was constructed (see FIG. 7B) and assessed in the β-galactosidase assays described above. […]
smiles,measurement,setting,value
"CCc1ccc(C(=O)NN(C(=O)c2cc(C)cc(C)c2)C(C)(C)C)cc1 [RH 5992, tebufenozide]",β-galactosidase activity,Aa EcR + Aa USPa,2.453
same,β-galactosidase activity,Aa EcR + Aa USPb,2.700
same,β-galactosidase activity,Aa USPa,0.223
same,β-galactosidase activity,Aa USPb,0.210
same,transactivation of the reporter gene (in words),"Aa ΔA/B EcR + Aa USPa; 10 μM, Aa EcR with N-terminal deletion, Aa USP present or absent, no GRIP1",incapable of transactivating the reporter gene
same,β-galactosidase activity,"Aa ΔA/B EcR + Aa USPa; RH 5992 10 μM, yeast, Aa ΔA/B EcR + Aa USPa, DMSO control 0.194",0.209
same,β-galactosidase activity,[1],1.370
same,β-galactosidase activity,[2],0.196
same,β-galactosidase activity,[3],3.000

# Reference: US7037656B2, “Methods and compositions for identifying ligands for nuclear receptors” (priority 2000, dated 2006)
